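Following 48 hours of exposure in 96-well plates, responses at five concentrations were used to interpolate endpoints linearly. TGI marks complete inhibition of growth.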
Assays:
Assay in all cases: NCI anticancer screen, dose series, 48 h
[1] = test system: HS 578T breast
[2] = test system: SK-MEL-5 melanoma
[3] = test system: HCT-15 colon
[4] = test system: SK-MEL-28 melanoma
[5] = test system: PC-3 prostate
[6] = test system: ACHN renal
[7] = test system: T-47D breast
[8] = test system: NCI-H460 lung
[9] = test system: UO-31 renal
[10] = test system: MOLT-4 leukemia
[11] = test system: SF-295 CNS
[12] = test system: UACC-62 melanoma
[13] = test system: SF-539 CNS

SMILES	TGI [1]	TGI [2]	TGI [3]	TGI [4]	TGI [5]	TGI [6]	TGI [7]	TGI [8]	TGI [9]	TGI [10]	TGI [11]	TGI [12]	TGI [13]
Clc1ccc2c(c1)CC1C[N+]3=C(CCCC3)C1=C2 (stereo not drawn)	> 100 µM	> 100 µM	> 100 µM	> 100 µM	> 100 µM	> 100 µM	> 100 µM	> 100 µM	> 100 µM	> 100 µM	> 100 µM	> 100 µM	
NC(CCCNc1cccc(O)c1)C(=O)O (stereo not drawn)		> 100 µM	> 100 µM	> 100 µM		> 100 µM		> 100 µM	> 100 µM	> 100 µM	> 100 µM	> 100 µM	
COc1cc2c(oc(=O)c3cc4ccoc4c(OC)c32)c2cccc(O)c12		> 100 µM	> 100 µM	> 100 µM		> 100 µM		> 100 µM	> 100 µM	> 100 µM	> 100 µM	> 100 µM	> 100 µM
CC(C)C(Sc1nc(-c2ccccc2)c(-c2ccccc2)[nH]1)C(=O)N/N=C/c1ccc([N+](=O)[O-])cc1 (stereo not drawn)		21.3 µM	36.5 µM	30.6 µM		> 100 µM		34.1 µM	26.5 µM	10.3 µM	33.9 µM	31.5 µM	36.5 µM
Cc1nc(N)c(N2CCN(Cc3ccccc3)CC2)c(=O)[nH]1	> 100 µM		> 100 µM	> 100 µM	> 100 µM	> 100 µM	> 100 µM	> 100 µM	> 100 µM	> 100 µM	> 100 µM		> 100 µM
O=C1/C(=C/c2ccc(Cl)cc2)N=C(c2ccccc2)N1C1Nc2cc3c(cc2S1)NC(N1C(=O)/C(=C/c2ccc(Cl)cc2)N=C1c1ccccc1)S3 (stereo not drawn)	> 100 µM	> 100 µM	> 100 µM	> 100 µM	> 100 µM	> 100 µM	> 100 µM	> 100 µM	> 100 µM	> 100 µM	> 100 µM		> 100 µM
CNC(=O)c1n[nH]n(Cc2ccccc2)c1=S		> 100 µM	> 100 µM	> 100 µM	> 100 µM	> 100 µM	> 100 µM	> 100 µM	> 100 µM	> 100 µM	> 100 µM	> 100 µM	
CC1(C)O[C@H]2[C@@H]3N=C(c4ccccc4)O[C@@H]3C=C[C@H]2O1		> 100 µM	> 100 µM	> 100 µM	> 100 µM	> 100 µM	> 100 µM		> 100 µM	> 100 µM	> 100 µM	> 100 µM	> 100 µM
CCN(CC)c1nc(N(C)C)c2ccc(OC)cc2n1	> 100 µM	24.7 µM	> 100 µM	32.4 µM	54.8 µM	59.6 µM	73.6 µM	26.5 µM		22.1 µM	> 100 µM	24.8 µM	49.6 µM

— PubChem BioAssay (NCI)
